Laboratory results taken from PubChem BioAssay AID1259407 (Chemical Carcinogenesis Research Information System (CCRIS), 2018).
Activity calls are given as the source filed them. How the calls were made is not given here.

Tested on: CCRIS mutagenicity, Ames/micronucleus/aberration tests
Experiment: CCRIS mutagenicity studies
[1] = Test System: AMES SALMONELLA TYPHIMURIUM, Strain/Indicator: TA98, Metabolic Activation: RAT, LIVER, S-9, AROCLOR 1254, Method: STANDARD PLATE
[2] = Test System: AMES SALMONELLA TYPHIMURIUM, Strain/Indicator: TA100, Metabolic Activation: RAT, LIVER, S-9, AROCLOR 1254, Method: STANDARD PLATE

Structure (SMILES): BrCCBr
- mutagenic call (End Point: IN VITRO CHROMOSOMAL ABERRATIONS, Test System: CHL CELLS, Metabolic Activation: RAT, LIVER, S-9, SODIUM PHENOBARBITAL AND 5,6-BENZOFLAVONE): active; positive (structural changes)
- mutagenic call (End Point: IN VITRO CHROMOSOMAL ABERRATIONS, Test System: CHO CELLS, Metabolic Activation: NONE): active; positive
- mutagenic call (End Point: IN VITRO CHROMOSOMAL ABERRATIONS, Test System: CHO CELLS, Metabolic Activation: RAT, LIVER, S-9, AROCLOR 1254): active; positive
- mutagenic call (Test System: AMES SALMONELLA TYPHIMURIUM, Strain/Indicator: TA97, Metabolic Activation: NONE, Method: STANDARD PLATE): active; positive
- mutagenic call (Test System: AMES SALMONELLA TYPHIMURIUM, Strain/Indicator: TA97, Metabolic Activation: RAT, LIVER, S-9, AROCLOR 1254, Method: STANDARD PLATE): active; positive
- mutagenic call (Test System: AMES SALMONELLA TYPHIMURIUM, Strain/Indicator: TA98, Metabolic Activation: NONE, Method: STANDARD PLATE): inactive; negative
- mutagenic call [1]: active; positive
- mutagenic call (Test System: AMES SALMONELLA TYPHIMURIUM, Strain/Indicator: TA100/NG-57, Metabolic Activation: CELL PRETREATMENT WITH GLUTATHIONE, Method: PREINCUBATION): active; positive
- mutagenic call (Test System: AMES SALMONELLA TYPHIMURIUM, Strain/Indicator: TA100/NG-57, Metabolic Activation: NONE, Method: PREINCUBATION): inactive; negative
- mutagenic call (Test System: AMES SALMONELLA TYPHIMURIUM, Strain/Indicator: TA100, Metabolic Activation: CELL PRETREATMENT WITH GLUTATHIONE, Method: PREINCUBATION): active; positive
- mutagenic call (Test System: AMES SALMONELLA TYPHIMURIUM, Strain/Indicator: TA100, Metabolic Activation: NONE): active; positive
- mutagenic call (Test System: AMES SALMONELLA TYPHIMURIUM, Strain/Indicator: TA100, Metabolic Activation: NONE, Method: PREINCUBATION): active; positive
- mutagenic call (Test System: AMES SALMONELLA TYPHIMURIUM, Strain/Indicator: TA100, Metabolic Activation: NONE, Method: SUSPENSION/PLATE): active; positive
- mutagenic call (Test System: AMES SALMONELLA TYPHIMURIUM, Strain/Indicator: TA100, Metabolic Activation: RAT, KIDNEY, S-9, AROCLOR 1254): active; positive
- mutagenic call (Test System: AMES SALMONELLA TYPHIMURIUM, Strain/Indicator: TA100, Metabolic Activation: RAT, LIVER, HEPATOCYTES, Method: SUSPENSION/PLATE): active; positive
- mutagenic call (Test System: AMES SALMONELLA TYPHIMURIUM, Strain/Indicator: TA100, Metabolic Activation: RAT, LIVER, S-9, AROCLOR 1254): active; positive
- mutagenic call [2]: active; positive
- mutagenic call (Test System: AMES SALMONELLA TYPHIMURIUM, Strain/Indicator: TA100, Metabolic Activation: RAT, LIVER, S-9, AROCLOR 1254 AND RAT, KIDNEY, S-9, AROCLOR 1254): active; positive
- mutagenic call (Test System: AMES SALMONELLA TYPHIMURIUM, Strain/Indicator: TA100, Metabolic Activation: S-9 MIX, Method: STANDARD PLATE): active; positive
- mutagenic call (Test System: AMES SALMONELLA TYPHIMURIUM, Strain/Indicator: TA102, Metabolic Activation: NONE, Method: STANDARD PLATE): inactive; negative
- mutagenic call (Test System: AMES SALMONELLA TYPHIMURIUM, Strain/Indicator: TA104, Metabolic Activation: NONE, Method: STANDARD PLATE): inactive; negative
- mutagenic call (Test System: AMES SALMONELLA TYPHIMURIUM, Strain/Indicator: TA104, Metabolic Activation: RAT, LIVER, S-9, AROCLOR 1254, Method: STANDARD PLATE): inactive; negative
- mutagenic call (Test System: AMES SALMONELLA TYPHIMURIUM, Strain/Indicator: TA1530, Metabolic Activation: NONE, Method: SPOT): active; positive
- mutagenic call (Test System: AMES SALMONELLA TYPHIMURIUM, Strain/Indicator: TA1535/NG-19, Metabolic Activation: CELL PRETREATMENT WITH GLUTATHIONE, Method: PREINCUBATION): active; positive
- mutagenic call (Test System: AMES SALMONELLA TYPHIMURIUM, Strain/Indicator: TA1535/NG-19, Metabolic Activation: NONE, Method: PREINCUBATION): active; positive
- mutagenic call (Test System: AMES SALMONELLA TYPHIMURIUM, Strain/Indicator: TA1535, Metabolic Activation: CELL PRETREATMENT WITH GLUTATHIONE, Method: PREINCUBATION): active; positive
- mutagenic call (Test System: AMES SALMONELLA TYPHIMURIUM, Strain/Indicator: TA1535, Metabolic Activation: NONE, Method: PREINCUBATION): active; positive
- mutagenic call (Test System: AMES SALMONELLA TYPHIMURIUM, Strain/Indicator: TA1535, Metabolic Activation: NONE, Method: STANDARD PLATE): active; positive
- mutagenic call (Test System: AMES SALMONELLA TYPHIMURIUM, Strain/Indicator: TA1535, Metabolic Activation: RAT, KIDNEY, S-9, AROCLOR 1254): active; positive
- mutagenic call (Test System: AMES SALMONELLA TYPHIMURIUM, Strain/Indicator: TA1535, Metabolic Activation: RAT, LIVER, S-9, AROCLOR 1254, Method: PREINCUBATION): active; positive
- mutagenic call (Test System: AMES SALMONELLA TYPHIMURIUM, Strain/Indicator: TA1535, Metabolic Activation: RAT, LIVER, S-9, AROCLOR 1254, Method: STANDARD PLATE): active; positive
- mutagenic call (Test System: AMES SALMONELLA TYPHIMURIUM, Strain/Indicator: TA1535, Metabolic Activation: RAT, LIVER, S-9, AROCLOR 1254 AND RAT, KIDNEY, S-9, AROCLOR 1254): active; positive
- mutagenic call (Test System: AMES SALMONELLA TYPHIMURIUM, Strain/Indicator: TA1535, Metabolic Activation: RAT, LIVER, S-9, PHENOBARBITAL, Method: STANDARD PLATE): active; positive
- mutagenic call (Test System: AMES SALMONELLA TYPHIMURIUM, Strain/Indicator: TA2638, Metabolic Activation: NONE, Method: STANDARD PLATE): inactive; negative
- mutagenic call (Test System: AMES SALMONELLA TYPHIMURIUM, Strain/Indicator: YG7100, Metabolic Activation: NONE, Method: PREINCUBATION): active; positive
- mutagenic call (Test System: AMES SALMONELLA TYPHIMURIUM, Strain/Indicator: YG7104, Metabolic Activation: NONE, Method: PREINCUBATION): active; positive
- mutagenic call (Test System: AMES SALMONELLA TYPHIMURIUM, Strain/Indicator: YG7108, Metabolic Activation: NONE, Method: PREINCUBATION): active; positive
- mutagenic call (Test System: AMES SALMONELLA TYPHIMURIUM, Strain/Indicator: YG7112, Metabolic Activation: NONE, Method: PREINCUBATION): active; positive
- mutagenic call (Test System: AMES SALMONELLA TYPHIMURIUM, Strain/Indicator: YG7113, Metabolic Activation: NONE, Method: PREINCUBATION): active; positive
- mutagenic call (Test System: AMES SALMONELLA TYPHIMURIUM, Strain/Indicator: YG7119, Metabolic Activation: NONE, Method: PREINCUBATION): active; positive
- mutagenic call (Test System: CHINESE HAMSTER OVARY, Strain/Indicator: CHO-K1 (HPRT)/6-THIOGUANINE, Metabolic Activation: NONE, Method: SUSPENSION/PLATE): active; positive
- mutagenic call (Test System: CHINESE HAMSTER OVARY, Strain/Indicator: CHO-K1-BH4 (HGPRT)/6-THIOGUANINE, Metabolic Activation: NONE): inactive; negative
- mutagenic call (Test System: E. COLI, Strain/Indicator: K12(AB1157), Metabolic Activation: NONE, Method: SUSPENSION/PLATE): inactive; negative
- mutagenic call (Test System: E. COLI, Strain/Indicator: K12(AB1157), Metabolic Activation: RAT, LIVER, S-9, PHENOBARBITAL AND BETA-NAPHTHOFLAVONE, Method: SUSPENSION/PLATE): inactive; negative
- mutagenic call (Test System: E. COLI, Strain/Indicator: K12(AB1886) UVRA, Metabolic Activation: NONE, Method: SUSPENSION/PLATE): active; positive
- mutagenic call (Test System: E. COLI, Strain/Indicator: K12(AB1886) UVRA, Metabolic Activation: RAT, LIVER, S-9, PHENOBARBITAL AND BETA-NAPHTHOFLAVONE, Method: SUSPENSION/PLATE): active; positive
- mutagenic call (Test System: E. COLI, Strain/Indicator: K12(AB2480) RECA/UVRA, Metabolic Activation: NONE, Method: SUSPENSION/PLATE): inactive; negative
- mutagenic call (Test System: E. COLI, Strain/Indicator: K12(AB2480) RECA/UVRA, Metabolic Activation: RAT, LIVER, S-9, PHENOBARBITAL AND BETA-NAPHTHOFLAVONE, Method: SUSPENSION/PLATE): inactive; negative
- mutagenic call (Test System: E. COLI, Strain/Indicator: WP2 UVRA (PKM101), Metabolic Activation: NONE, Method: STANDARD PLATE): active; positive
- mutagenic call (Test System: MOUSE LYMPHOMA, Strain/Indicator: L5178Y (TK+/TK-), Metabolic Activation: NONE, Method: SUSPENSION/PLATE): active; positive
- mutagenic call (Test System: MOUSE LYMPHOMA, Strain/Indicator: L5178Y (TK+/TK-), Metabolic Activation: RAT, LIVER, S-9, AROCLOR 1254, Method: SUSPENSION/PLATE): active; positive

Structure (SMILES): Clc1ccc2ccc3cccc4ccc1c2c34
- mutagenic call [1]: active; positive
- mutagenic call [2]: active; positive
